Entries after “also recorded” stand apart in the source; their conditions may differ.

Data set [1] relates to MDCK cells. The data set is described as follows: MDCK cell apoptosis, in situ cell death detection kit. The following applies: 10 μM, 72 h. Format: cell-based, Canine. Here is the method: Apoptosis was measured using the in situ cell death detection kit (ROCHE Diagnostics, Indianapolis, Ind.). MDCK cells were seeded on 8-chamber polystyrene tissue culture-treated glass slides and incubated with compounds T08 and G07 for 72 h at 5, 10 or 20 μM. The assay was performed according to manufacturer's instructions. Five microscopic fields were analyzed per condition. The apoptosis index was calculated as the percentage of nucleus-stained cells.

For data set [2], the target named is T1, CFTR (Canis lupus familiaris, UniProt Q5U820).
T1 construct: MDCK cells, which endogenously express CFTR; endogenous in cells; host or cells: MDCK cells
The data set is described as follows: Short-circuit current measurements in MDCK cells. Format: cell-based, Canine. The following applies: for IC50: after CFTR stimulation by forskolin, read-out: IC50, inhibition of short-circuit current in MDCK cells; for CFTR expression, short-circuit current after incubation (in words): 10 μM, 1 or 48 hour incubation, washout 1 hour. Here is the method: CFTR inhibition potency was confirmed in MDCK cells by short-circuit current analysis. Snapwell inserts containing MDCK cells (transepithelial resistance 1000-2000 Ohms) were mounted in a standard Using chamber system. The basolateral membrane was permeabilized with 250 μg/ml amphotericin B. The hemichambers were filled with 5 mL of 65 mM NaCl, 65 mM Na-gluconate, 2.7 mM KCl, 1.5 mM KH2PO4, 1 mM CaCl2, 0.5 mM MgCl2, Na-Hepes and 10 mM glucose (apical), and 130 mM NaCl, 2.7 mM KCl, 1.5 mM KH2PO4, 1 mM CaCl2, 0.5 mM MgCl2, Na-Hepes and 10 mM glucose (basolateral) (pH 7.3). Short-circuit current was recorded continuously using a DVC-1000 voltage clamp (World Precision Instruments, Sarasota Fla.) with Ag/AgCl electrodes and 1 M KCl agar bridges.
In some experiments, MDCK cells in Snapwell inserts were cultured in medium containing 10 μM T08 or G07 for 1 or 48 hours. Compounds were washed out with medium for 1 hour before short-circuit current measurements.

The test system of data set [3] is embryonic kidneys. The data set is described as follows: Embryonic kidney organ culture model (8-Br-cAMP-induced cysts). Type of data set: cell-based, mouse. The following applies: for kidney length after 4 days in culture: absence of 8-Br-cAMP; for cyst formation in embryonic kidneys (in words): 100 μM 8-Br-cAMP, 4 days. The source says: An embryonic kidney organ culture model was used to further evaluate compounds T08 and G07. Embryonic kidney culture models permit organotypic growth and differentiation of renal tissue in defined media without the confounding effects of circulating hormones and glomerular filtration (see, e.g., Magenheimer et al., J Am Soc Nephrol 17: 3424-37, 2006; and Gupta et al., Kidney Int 63: 365-376, 2003). In addition, the early mouse kidney tubule in this model has an intrinsic capacity to secrete fluid in response to cAMP by a CFTR-dependent mechanism (Magenheimer et al.), allowing the evaluation of CFTR inhibitors in particular.
Mouse embryos were obtained at embryonic day 13.5 (E13.5). Metanephroi were dissected and placed on transparent Falcon […] porous cell culture inserts. To the culture inserts was added DMEM/Ham's F-12 nutrient medium supplemented with 2 mM L-glutamine, 10 mM HEPES, 5 μg/ml insulin, 5 μg/ml transferrin, 2.8 nM selenium, 25 ng/ml prostaglandin E, 32 pg/ml T3, 250 U/ml penicillin and 250 μg/ml streptomycin. Kidneys were maintained in a 37° C. humidified CO2 incubator, and were cultured for 4 days in the absence or presence of 100 μM 8-Br-cAMP. Culture medium containing 100 μM 8-Br-cAMP, with or without CFTR inhibitors, was replaced (in the lower chamber) every 12 hours.
Kidneys were photographed using a Nikon inverted microscope (Nikon TE 2000-S) equipped with 2× objective lens, 520 nm bandpass filter, and high-resolution PixeLINK color CCD camera. […] Cyst sizes in micrographs of metanephroi were determined using MATLAB 7.0 software. A masking procedure was used to highlight all pixels of similar intensity within each cyst. Fractional cyst area was calculated as total cyst area divided by total kidney area. Cysts with diameters >50 μm were included in the analysis. Image acquisition and analysis was done without knowledge of treatment condition.

Data set [4] relates to Pkd1^flox/−; Ksp-Cre mice. The data set is described as follows: Pkd1flox/-;Ksp-Cre mouse model of autosomal dominant polycystic kidney disease. Type of data set: in vivo. As to conditions: for kidney weight in Pkd1flox/-;Ksp-Cre mice (in words): 3 days treatment, vs vehicle-treated; for total numbers of cysts (of >50 μm diameter) per kidney: H&E sections, control 797±69; for total numbers of cysts (of >50 μm diameter) per kidney / serum creatinine and urea (in words): Pkd1flox/-;Ksp-Cre mice; for serum creatinine and urea (in words): vs vehicle control, age 5 and 9 days. The source says: An in vivo model of kidney disease was employed to further explore the ability of CFTR inhibitors to reduce cyst formation in a vascular, perfused cellular environment. Pkd1^flox/−; Ksp-Cre mice were employed for this model, since these kidney-selective Pkd1 knockout mice manifest a fulminant course, with development of large cysts and renal failure in first 2 weeks of life, and represent a postnatal model of ADPKD. Pkd1 knockout mice normally die within 20 days. The Pkd1^flox/−; Ksp-Cre model is suitable, inter alia, for evaluating the efficacy of CFTR inhibitors on retarding the growth of cysts in the distal segments of the nephron, including medullary thick ascending limbs of the loops of Henle, distal convoluted tubule and collecting ducts.
Pkd1^flox mice and Ksp-Cre transgenic mice in a C57BL/6 background were generated as described (see, e.g., Shibazaki et al., J Am Soc Nephrol 13: 10-11, 2004; and Shao et al., J Am Soc Nephrol 13: 1837-1846, 2002). Ksp-Cre mice express Cre recombinase under the control of the Ksp-cadherin promoter (Shao et al.). Kidney-specific Pdk1 knock-out mice (Pkd1^flox/−; Ksp-Cre mice) were generated by cross-breeding Pkd1^flox/flox mice with Pkd1^+/−:Ksp-Cre mice. Neonatal mice (age 1 day) were genotyped by genomic PCR.
CFTR inhibitors (5-10 mg/kg/day) or saline DMSO vehicle control (0.05 mL/injection) were administrated by subcutaneous injection on the backs of neonatal mice four times a day for 3 or 7 days using a 1 cc insulin syringe, beginning at age 2 days (11 mice per group). Pkd1^flox/+; Ksp-Cre or Pkd1^flox/+ mice from the same litter were used as controls. During the treatment period, control and Pkd1^flox/−; Ksp-Cre mice, with or without CFTR inhibitor treatment, were indistinguishable in their activity and behavior. Body weight was measured at day 5 (3 days after treatment), at which time there was no difference in body weight in any of the mouse groups. Blood and urine samples were collected for measurements of CFTR inhibitor concentration and renal function. Kidneys were removed and weighed, and fixed for histological examination or homogenized for determination of CFTR inhibitor content.
To measure serum creatinine and urea (indicators of renal function), serum was obtained from whole blood by centrifugation at 5000×g for 5 min. Serum creatinine concentration was measured using a colorimetric assay kit (Cayman Chemical, Ann Arbor Mich.) following manufacturer's instructions. Urea concentration was measured using the colorimetric QUANTICHROM Urea Assay Kit (BioAssay Systems, Hayward, Calif.). Creatinine and urea concentrations were determined from optical densities using calibration standards.
For histological examination, kidneys were fixed with Bouin's fixative and embedded in paraffin. Three-μm thick sections were cut serially every 200 μm and stained with hematoxylin and eosin (H&E). Sections were imaged using a LEICA inverted epifluorescence microscope (DM 4000B) equipped with 2.5× objective lens and color CCD camera (Spot, model RT KE; Diagnostic Instruments Inc.). Cyst sizes in micrographs of kidney were determined using MATLAB 7.0 software.

T1 sequence (Q5U820 whole entry): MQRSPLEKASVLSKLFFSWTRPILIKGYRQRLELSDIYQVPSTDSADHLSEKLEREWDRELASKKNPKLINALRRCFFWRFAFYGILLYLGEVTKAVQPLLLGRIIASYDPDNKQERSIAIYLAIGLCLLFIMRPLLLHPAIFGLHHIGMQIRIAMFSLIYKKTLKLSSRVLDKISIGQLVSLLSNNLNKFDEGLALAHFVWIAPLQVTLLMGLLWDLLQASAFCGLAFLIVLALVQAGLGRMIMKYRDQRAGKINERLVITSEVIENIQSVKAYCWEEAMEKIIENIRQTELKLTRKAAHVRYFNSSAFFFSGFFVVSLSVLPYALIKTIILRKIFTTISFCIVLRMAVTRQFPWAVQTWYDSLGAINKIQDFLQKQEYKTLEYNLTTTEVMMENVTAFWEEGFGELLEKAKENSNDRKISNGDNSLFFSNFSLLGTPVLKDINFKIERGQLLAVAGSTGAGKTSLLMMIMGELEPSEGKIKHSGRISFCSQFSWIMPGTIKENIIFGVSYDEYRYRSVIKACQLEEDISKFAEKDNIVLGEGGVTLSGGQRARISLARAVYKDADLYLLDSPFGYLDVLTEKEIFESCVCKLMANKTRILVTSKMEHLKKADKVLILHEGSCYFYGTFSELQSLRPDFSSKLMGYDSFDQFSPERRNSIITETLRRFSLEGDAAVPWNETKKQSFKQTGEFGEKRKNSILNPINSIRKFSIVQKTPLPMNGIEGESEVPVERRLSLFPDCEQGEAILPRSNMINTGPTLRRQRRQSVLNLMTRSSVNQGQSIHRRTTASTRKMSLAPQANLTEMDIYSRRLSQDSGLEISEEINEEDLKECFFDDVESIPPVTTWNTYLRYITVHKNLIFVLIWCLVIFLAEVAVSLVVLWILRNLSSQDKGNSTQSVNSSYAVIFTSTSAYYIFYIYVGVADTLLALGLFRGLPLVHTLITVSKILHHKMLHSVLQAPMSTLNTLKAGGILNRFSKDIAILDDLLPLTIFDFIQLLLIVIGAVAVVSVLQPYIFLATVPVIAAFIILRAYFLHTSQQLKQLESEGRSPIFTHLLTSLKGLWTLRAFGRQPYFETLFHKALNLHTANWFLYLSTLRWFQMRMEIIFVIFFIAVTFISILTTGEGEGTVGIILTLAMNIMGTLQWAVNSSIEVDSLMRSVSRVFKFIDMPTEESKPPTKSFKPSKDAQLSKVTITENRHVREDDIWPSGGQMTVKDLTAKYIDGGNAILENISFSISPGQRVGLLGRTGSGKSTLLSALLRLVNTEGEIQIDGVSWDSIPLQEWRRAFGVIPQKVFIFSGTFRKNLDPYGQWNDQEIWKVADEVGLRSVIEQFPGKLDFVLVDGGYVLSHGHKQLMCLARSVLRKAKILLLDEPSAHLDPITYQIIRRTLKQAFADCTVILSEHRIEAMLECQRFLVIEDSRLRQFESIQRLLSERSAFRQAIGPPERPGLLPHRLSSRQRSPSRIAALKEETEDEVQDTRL

Consider `O=C1/C(=C/c2ccc(-c3nn[nH]n3)cc2)SC(=S)N1c1cccc(C(F)(F)F)c1` [Compound 6, (Z)-5-(4-(1H-tetrazol-5-yl)benzylidene)-2-thioxo-3-(3-(trifluoromethyl)phenyl)thiazolidin-4-one], for which the “MDCK cell apoptosis (in words)” value in data set [1] is reported as “did not cause MDCK cell apoptosis”. The IC50 in data set [2] was about 1000 nM. Moreover, the “kidney length after 4 days in culture” value in data set [3] worked out at 7.4±0.5 mm.
For `O=C1/C(=C/c2ccc(-c3nnn[nH]3)cc2)SC(=S)N1c1cccc(C(F)(F)F)c1` [Compound 6, (Z)-5-(4-(1H-tetrazol-5-yl)benzylidene)-2-thioxo-3-(3-(trifluoromethyl)phenyl)thiazolidin-4-one], the “CFTR expression, short-circuit current after incubation (in words)” value in data set [2] is on record as “did not alter CFTR expression”. For the same compound, in data set [3] (listed as T08), the “cyst formation in embryonic kidneys (in words)” value is “remarkably reduced cyst formation; also recorded: reduced the number and size of cysts”. Also, in data set [4], the “kidney weight in Pkd1flox/-;Ksp-Cre mice (in words)” value is given as “reduced kidney weight significantly”; the “total numbers of cysts (of >50 μm diameter) per kidney” value stood at 457±32; the “serum creatinine and urea (in words)” value is on record as “significantly reduced”.
On to “N-2-naphthalenyl-2-hydroxyethyl-[(3,5-dibromo-2,4-dihydroxyphenyl)methylene]phenylglycinehydrazide [Compound G07]”, for which the “MDCK cell apoptosis (in words)” value in data set [1] is given as “did not cause MDCK cell apoptosis”. In data set [2], the “CFTR expression, short-circuit current after incubation (in words)” value is reported as “did not alter CFTR expression” and the IC50 was about 1000 nM. In addition, in data set [3], the “cyst formation in embryonic kidneys (in words)” value is “remarkably reduced cyst formation; also recorded: reduced the number and size of cysts”; the “kidney length after 4 days in culture” value worked out at 7.1±0.4 mm. In addition, in data set [4], the “kidney weight in Pkd1flox/-;Ksp-Cre mice (in words)” value is reported as “reduced kidney weight significantly”; the “total numbers of cysts (of >50 μm diameter) per kidney” value is on record as 316±45; the “serum creatinine and urea (in words)” value is listed as “significantly reduced”.
